Patent publication US20260091020A1, “TREATMENT OF ACUTE CANNABINOID OVERDOSE” (Anebulo Pharmaceuticals, Inc., priority 2022, published 2026)

System: central nervous system effects of THC
Assay: THC challenge PD, 21-30 mg THC with 10 or 30 mg Compound 1, simultaneous or 1 hr delay (Examples 4 and 9)
Assay type: in vivo, human
Procedure: FIG. 14 depicts a randomized, double-blind, placebo controlled study. Left to right. (a) 14 Adult volunteers ages 18-45 are selected; (b) A single oral dose and 24-hour assessment is conducted for groups (1) 21 mg THC+placebo; and (2) 21 mg THC+30 mg ANEB-001 (c) 7 to 14 day follow up is conducted. Primary endpoints include inhibition of central nervous system effects of THC using (a) visual analog scale “feeling high”; (b) visual analog scale “alertness”; (c) body sway; (d) heart rate. Secondary endpoints include additional efficacy metrics, safety/tolerability, PK, and PK/PD correlations.
FIG. 15 depicts a randomized, double-blind, placebo controlled study. Left to right: (a) 11 Adult volunteers ages 18-45 are selected; (b) A single oral dose and 24-hour assessment is conducted for groups (1) 21 mg THC+placebo; and (2) 21 mg THC+10 mg ANEB-001 (c) 7 to 14 day follow up is conducted. Primary endpoints include inhibition of central nervous system effects of THC using (a) visual analog scale “feeling high”; (b) visual analog scale “alertness”; (c) body sway; (d) heart rate. Secondary endpoints include additional efficacy metrics, safety/tolerability, PK, and PK/PD correlations.
Following the general methods of Example 2, the study design was adjusted such that groups received either (a) THC (21 mg)+placebo or (b) THC (21 mg)+Compound 1 (30 mg) (FIG. 14) or either (a) THC (21 mg)+placebo or (b) THC (21 mg)+Compound 1 (10 mg) (FIG. 15). […] Summary of pharmacokinetics of THC with 30 mg ANEB-001 challenge (FIG. 18A and FIG. 18B), AUC after 5 hours (FIG. 18C), AUC last (FIG. 18D) and Cmax (FIG. 18E).
Following the general methods of Examples 1-3, the study design was adjusted such that Compound 1 was administered 1 hour after administration of THC. Groups received either (a) THC (21 mg)+Compound 1 (10 mg); (b) THC […]+Compound 1 (10 mg); (c) THC (30 mg)+Compound 1 (10 mg); or (d) THC (30 mg)+Compound 1 (10 mg). […] Endpoints were then evaluated as generally described in Example 1, and PK properties were measured as shown for the general methods of Example 2.

[1] = 30 mg THC, 10 mg ANEB-001, 1 hr Delay, p = 0.0007
[2] = 30 mg THC, 10 mg ANEB-001, 1 hr Delay, p = <0.0001
[3] = 21-30 mg THC, 10 mg ANEB-001, 1 hr Delay (pooled), p = <0.0001

CC(C)(C)NC(=O)N1CC(O[C@H](c2ccc(Cl)cc2)c2ccccc2C(F)(F)F)C1 [Compound 1, (R)—N-(tert-butyl)-3-((4-chlorophenyl)(2-(trifluoromethyl)phenyl)methoxy)azetidine-1-carboxamide]
Body Sway, Alertness and Feeling High vs. placebo (21 mg THC + 30 mg ANEB-001): improvements in Body Sway (FIG. 16A), Alertness (FIG. 16B) and Feeling High (FIG. 16C) | VAS Feeling High log(mm) (21 mg THC, 10 mg ANEB-001, 1 hr Delay, p = 0.0380): −0.5545 log(mm) | Body Sway (mm) (21 mg THC, 10 mg ANEB-001, 1 hr Delay, p = 0.0406): −3% | VAS External Perception log(mm) (21 mg THC, 10 mg ANEB-001, 1 hr Delay, p = 0.0530): Modified | Heart Rate (supine) (bpm) (21 mg THC, 10 mg ANEB-001, 1 hr Delay, p = 0.0589): 10.3 bpm | VAS Alertness (mm) (21 mg THC, 10 mg ANEB-001, 1 hr Delay, p = 0.4834): 4.4 mm | Responder Rate (VAS Feeling High) (21 mg THC, 10 mg ANEB-001, 1 hr Delay, p = <0.0001): Reversed | VAS Feeling High log(mm) (21 mg THC, 10 mg ANEB-001, Simultaneous, p = 0.0001): −0.7072 log(mm) | Responder Rate (VAS Feeling High) (21 mg THC, 10 mg ANEB-001, Simultaneous, p = 0.0002): Reversed | VAS External Perception log(mm) (21 mg THC, 10 mg ANEB-001, Simultaneous, p = 0.0037): Reversed | VAS Alertness (mm) (21 mg THC, 10 mg ANEB-001, Simultaneous, p = 0.0047): 9.2 mm | Body Sway (mm) (21 mg THC, 10 mg ANEB-001, Simultaneous, p = 0.0069): −29.3% | VAS Internal Perception log(mm) (21 mg THC, 10 mg ANEB-001, Simultaneous, p = 0.0120): Reversed | Heart Rate (supine) (bpm) (21 mg THC, 10 mg ANEB-001, Simultaneous, p = 0.7264): −1.1 bpm | VAS External Perception log(mm) (21 mg THC, 30 mg ANEB-001, Simultaneous, p = 0.0010): Reversed | VAS Alertness (mm) (21 mg THC, 30 mg ANEB-001, Simultaneous, p = 0.0013): 10.8 mm | VAS Internal Perception log(mm) (21 mg THC, 30 mg ANEB-001, Simultaneous, p = 0.0016): Reversed | Responder Rate (VAS Feeling High) (21 mg THC, 30 mg ANEB-001, Simultaneous, p = 0.0019): Reversed | Body Sway (mm) (21 mg THC, 30 mg ANEB-001, Simultaneous, p = 0.0023): −30.6% | Heart Rate (supine) (bpm) (21 mg THC, 30 mg ANEB-001, Simultaneous, p = 0.4730): −2.2 bpm | VAS Feeling High log(mm) (21 mg THC, 30 mg ANEB-001, Simultaneous, p = <0.0001): −0.7856 log(mm) | VAS External Perception log(mm) (21 mg THC, 10-30 mg ANEB-001, Simultaneous (pooled), p = 0.0004): Reversed | Responder Rate (VAS Feeling High) (21 mg THC, 10-30 mg ANEB-001, Simultaneous (pooled), p = 0.0005): Reversed | VAS Alertness (mm) (21 mg THC, 10-30 mg ANEB-001, Simultaneous (pooled), p = 0.0007): 15.6 mm | VAS Internal Perception log(mm) (21 mg THC, 10-30 mg ANEB-001, Simultaneous (pooled), p = 0.0012): Reversed | Body Sway (mm) (21 mg THC, 10-30 mg ANEB-001, Simultaneous (pooled), p = 0.0013): −30.0% | Heart Rate (supine) (bpm) (21 mg THC, 10-30 mg ANEB-001, Simultaneous (pooled), p = 0.8247): 0.6 bpm | VAS Feeling High log(mm) (21 mg THC, 10-30 mg ANEB-001, Simultaneous (pooled), p = <0.0001): −0.7364 log(mm) | THC-induced body sway (21 mg or 30 mg THC, coadministration or Compound 1 after THC): significant reduction in body sway | VAS bad drug effect (30 mg THC, 10 mg ANEB-001, 1 hr Delay, p = 0.0003): Reversed | VAS External Perception log(mm) [1]: Reversed | VAS Internal Perception log(mm) [1]: Reversed | VAS Alertness (mm) (30 mg THC, 10 mg ANEB-001, 1 hr Delay, p = 0.0042): 10.8 mm | VAS good drug effect (30 mg THC, 10 mg ANEB-001, 1 hr Delay, p = 0.0112): Reversed | Body Sway (mm) (30 mg THC, 10 mg ANEB-001, 1 hr Delay, p = 0.0196): −34.8% | Heart Rate (supine) (bpm) (30 mg THC, 10 mg ANEB-001, 1 hr Delay, p = 0.1119): 6.7 bpm | Responder Rate (VAS Feeling High) [2]: Reversed | VAS Feel drug effect [2]: Reversed | VAS Feeling High log(mm) [2]: −0.8581 log(mm) | Responder Rate (VAS Feeling High) (21-30 mg THC, 10 mg ANEB-001, 1 hr Delay (pooled), p = 0.0002): Reversed | VAS Feel drug effect (21-30 mg THC, 10 mg ANEB-001, 1 hr Delay (pooled), p = 0.0003): Reversed | Body Sway (mm) (21-30 mg THC, 10 mg ANEB-001, 1 hr Delay (pooled), p = 0.0014): −32.4% | VAS good drug effect (21-30 mg THC, 10 mg ANEB-001, 1 hr Delay (pooled), p = 0.0021): Reversed | VAS Alertness (mm) (21-30 mg THC, 10 mg ANEB-001, 1 hr Delay (pooled), p = 0.0024): 11.3 mm | VAS Internal Perception log(mm) (21-30 mg THC, 10 mg ANEB-001, 1 hr Delay (pooled), p = 0.0040): Reversed | Heart Rate (supine) (bpm) (21-30 mg THC, 10 mg ANEB-001, 1 hr Delay (pooled), p = 0.0125): −8.1 bpm | VAS bad drug effect (21-30 mg THC, 10 mg ANEB-001, 1 hr Delay (pooled), p = 0.0274): Reversed | VAS External Perception log(mm) [3]: Reversed | VAS Feeling High log(mm) [3]: −0.7028 log(mm) | VAS drug effects (feeling any drug effect) (Compound 1 one hour after THC, vs THC alone): highly significant reduction in feeling any drug effect | Proportion of responders (reduction in feeling high) (THC 21 or 30 mg, 10 mg or 30 mg Compound 1, vs THC alone): highly significant increase in the proportion of responders | VAS alertness (coadministration or Compound 1 after THC, vs THC alone): significant reduction in VAS alertness | Recovery time (feeling high time course) (coadministration or Compound 1 one hour after THC): reduced recovery time by several hours | VAS feeling high (coadministration or Compound 1 one hour after THC, vs THC alone, overall p<0.0001): highly significant reduction in feeling high | All primary outcomes, pre-specified pooled analysis (combined 21 mg or 30 mg THC, 10 mg Compound 1 one hour after THC): achieved statistical significance on all primary outcomes | Key psychotropic effects of THC (single oral 10 mg Compound 1, 1 hour after THC challenge, THC doses as high as 30 mg): rapidly reversed key psychotropic effects of THC
